Test results published in patent US10682427B2, “Intra-operative imaging” (BRACCO IMAGING S.P.A., priority 2014, dated 2020).

Columns and labels:
αvβ1 integrin = αvβ1 integrin (Homo sapiens, UniProt P05556+P06756); test: In vitro competitive binding assay with biotinylated vitronectin; conditions: competitor biotinylated vitronectin 1 μg/mL, read-out: IC50 (vitronectine IC50)
Experimental: (§1) The affinity of DA364 for its specific targeted (the integrin αvβ3) and its crossreactivity for other integrins (e.g. αvβ1, αvβ5) was assessed by in vitro binding tests.
(§2) A 96-well microtiter plate (MediSorp, Nunc) was coated overnight at 4° C., with tested integrins (0.5 μg/mL, diluted in coating/washing buffer (20 mM Tris HCl pH 7.4; 150 mM NaCl; 1 mM MnCl2; 0.5 mM MgCl2; 2 mM CaCl2). After coating, the plate is rinsed with washing buffer and then incubated in blocking buffer (3% BSA in coating buffer) for 2 h at room temperature (RT) (24° C. in Thermomixer, under shaking). The plate was then rinsed in washing buffer and incubated at RT for 3 h with DA364 (concentration range from 5000 to 0.005 nM). DA364 solutions were prepared by serially diluting a stock solution of the NIR agent in 1% BSA in coating buffer in presence of biotinylated vitronectin (1 μg/mL, cod. HVN-U605, Molecular Innovations). The plate is then rinsed again and incubated with Streptavidin-HRP (cod.EG RPN 1051, GE Healthcare) (1:10000 in PBS) 1 h at RT, binding the biotinylated vitronectin. After additional washes in PBS, the plate was incubated with TMB solution (3,3′,5,5′-tetramethylbenzidine) (cod.T-0440, Sigma-Aldrich) for 5-10 min and the colorimetric reaction was then stopped by addition of 2 N sulfuric acid. The quantification of the IC50 for DA364 was performed by measuring the competitor (biotinylated vitronectin) by reading the absorbance at 450 nm. IC50 values were determined by least-square non-linear regression analysis.

αvβ3 integrin = αvβ3 integrin (Homo sapiens, UniProt P05106+P06756); test: as above; conditions: competitor biotinylated vitronectin 1 μg/mL, average value from a triplicate test, read-out: IC50 (vitronectine IC50)
Experimental: as §1, §2

αvβ5 integrin = αvβ5 integrin (Homo sapiens, UniProt P06756+P18084); test: as above; conditions: competitor biotinylated vitronectin 1 μg/mL, read-out: IC50 (vitronectine IC50)
Experimental: as §1, §2

A431 tumor = test: In vivo and ex vivo fluorescence imaging of tumor uptake (IVIS Spectrum); parameters: species or system mice
Experimental: (§3) A431 cells were collected and washed two times with PBS. Five million cells were resuspended in 0.1 mL of DMEM high glucose medium and subcutaneously injected in the right flank of all mice. Eleven days after A431 inoculation, U-87MG cells were collected and washed two times with PBS. Two million cells were resuspended in 0.1 mL of EMEM medium and subcutaneously injected in the left flank of same animals previously injected with A431 cells.
(§4) Three weeks after A431 tumor implantation five mice were administered with 1 nmol of DA364 for a total administration volume of 0.2 mL (inj. rate 1 mL/min). In vivo OI acquisitions have been carried out 5 min, 15 min, 30 min, 1 h, 2 h, 3 h, 4 h, 6 h, 24 h and 48 hours after intravenous administration of the fluorescent probe using the IVIS Spectrum optical imaging system (Perkin Elmer). During OI experiments animals were kept under 3-4% Sevofluorane gas anaesthesia (O2 97.0-96.0%). During anaesthesia animals body temperature has been stabilized at about 37° C. using a heated bed.
(§5) Following in vivo OI experiments, 48 hours after probes injection, animals were sacrificed. Tumors, liver, kidneys, heart and spleen were excised for ex vivo fluorescent signal measure on the whole excised tumor or organ.
(§6) Fluorescence intensity from U-87 MG and A431 tumors was measured in vivo together with the signal coming from the normal healthy tissues (background).
(§7) The fluorescent signal (expressed as Radiant Efficiency (RE): p/s/(μW/cm^2), where p is the photon count), was then measured on the excised ex vivo samples using the IVIS Spectrum optical imaging system (Perkin Elmer).

U-87MG tumor = test: as above; parameters: species or system mice
Experimental: as §3, §4, §5, §6, §7

[1] = Normalized excitation and emission spectra; format: physicochemical
Excerpt: The normalized excitation and emission spectra of the NIR agent in PBS (ex/em: 674/694; Stokes Shift: 20 nm) and in SERONORM (human-based control serum) (694/704, Stokes Shift 10 nm) are shown in FIG. 2. As shown in the figure, the interaction of the DA364 contrast agent with serum albumin promotes the shift of the emission maximum from 694 nm to 704 nm (in PBS and in SERONORM (human-based control serum) respectively) and also the reduction of the Stokes shift.

[2] = ex vivo, 48 hours after 1 nmol i.v.
[3] = SERONORM (human-based control serum)

IC50 (αvβ1 integrin): 28 nM | IC50 (αvβ3 integrin): 3.76 nM | IC50 (αvβ5 integrin): 281 nM
SMILES: CC[N+]1=C(/C=C/C=C/C=C2/N(CCCCCC(=O)NC[C@@H]3C[C@@H]4CC[C@H]5C(=O)N[C@@H](CCCNC(=N)N)C(=O)NCC(=O)N[C@@H](CC(=O)O)C(=O)N[C@H]3C(=O)N45)c3ccc4c(S(=O)(=O)O)cc(S(=O)(=O)O)cc4c3C2(C)C)C(C)(C)c2c1ccc1c(S(=O)(=O)[O-])cc(S(=O)(=O)O)cc21 [DA364]
tumor signal ratio with respect to the background (A431 tumor; A431 tumor in vivo, 3 hours to 24 hours after injection): stable signal ratio | fluorescence intensity in A431 tumors relative to heart and spleen (background) (A431 tumor; [2]): about 10 times | fluorescence intensity in A431 tumors relative to liver and kidney (A431 tumor; [2]): comparable | Fluorescence Signal (Radiant Efficiency) (A431 tumor; excised A431 tumor ex vivo, 48 hours after 1 nmol i.v.): 3.47E+08 p/s/(μW/cm^2) | visualization of tumor under skin (FIG. 9) (A431 tumor; low-integrin expressing tumor A431, in vivo fluorescence imaging): clear visualization | tumor signal ratio with respect to the background (U-87MG tumor; U-87 MG tumor in vivo, 3 hours to 24 hours after injection): stable signal ratio | fluorescence signal in U-87MG tumor relative to A431 tumor (U-87MG tumor; [2]): about twice | Fluorescence Signal (Radiant Efficiency) (U-87MG tumor; excised U87-MG tumor ex vivo, 48 hours after 1 nmol i.v.): 6.78E+08 p/s/(μW/cm^2) | Stokes Shift ([1]; PBS): 20 nm | emission maximum (em) ([1]; PBS): 694 nm | excitation maximum (ex) ([1]; PBS): 674 nm | Stokes Shift [1, 3]: 10 nm | emission maximum (em) [1, 3]: 704 nm | excitation maximum (ex) [1, 3]: 694 nm
